The results in this text go back to ChEMBL document CHEMBL1159147, “4-(2-PYRTOYL)-5-phenylthiazoles as novel non-bicyclic reversible inhibitors of the gastric H+/K+-atpase” (Bioorg Med Chem Lett, 1995).

Data set [1] has as its target Potassium-transporting ATPase alpha chain 1 (Sus scrofa) (UniProt P19156). As to the kind of experiment: Ability to inhibit H+/K+ stimulated ATPase activity in lympholised gastric vesicles at 30 uM concentration. In kind it is tissue-based. Particulars: Stomach.
The target is the same in data set [2]. The data set is described as follows: Ability to inhibit H+/K+ stimulated ATPase activity in lympholised gastric vesicles at 100 uM concentration. Format: tissue-based. The conditions noted are these: Stomach.
A further data set concerns Rattus norvegicus. The data set is described as follows: Compound was tested in vivo for its ability to inhibit pentagastrin-stimulated gastric acid secretion in the anesthetized lumen perfused rat at 10 umol/kg iv; insoluble. Format: functional, organism-based. The conditions noted are these: Stomach.
The test system of data set [3] is CCCc1nc(-c2cc(N)ccn2)c(-c2ccccc2C)s1. The data set is described as follows: Km was determined.
Data set [4] has the same test system. As to the kind of experiment: Vmax was determined.

Chain of Potassium-transporting ATPase alpha chain 1 (Sus scrofa) (P19156 whole entry): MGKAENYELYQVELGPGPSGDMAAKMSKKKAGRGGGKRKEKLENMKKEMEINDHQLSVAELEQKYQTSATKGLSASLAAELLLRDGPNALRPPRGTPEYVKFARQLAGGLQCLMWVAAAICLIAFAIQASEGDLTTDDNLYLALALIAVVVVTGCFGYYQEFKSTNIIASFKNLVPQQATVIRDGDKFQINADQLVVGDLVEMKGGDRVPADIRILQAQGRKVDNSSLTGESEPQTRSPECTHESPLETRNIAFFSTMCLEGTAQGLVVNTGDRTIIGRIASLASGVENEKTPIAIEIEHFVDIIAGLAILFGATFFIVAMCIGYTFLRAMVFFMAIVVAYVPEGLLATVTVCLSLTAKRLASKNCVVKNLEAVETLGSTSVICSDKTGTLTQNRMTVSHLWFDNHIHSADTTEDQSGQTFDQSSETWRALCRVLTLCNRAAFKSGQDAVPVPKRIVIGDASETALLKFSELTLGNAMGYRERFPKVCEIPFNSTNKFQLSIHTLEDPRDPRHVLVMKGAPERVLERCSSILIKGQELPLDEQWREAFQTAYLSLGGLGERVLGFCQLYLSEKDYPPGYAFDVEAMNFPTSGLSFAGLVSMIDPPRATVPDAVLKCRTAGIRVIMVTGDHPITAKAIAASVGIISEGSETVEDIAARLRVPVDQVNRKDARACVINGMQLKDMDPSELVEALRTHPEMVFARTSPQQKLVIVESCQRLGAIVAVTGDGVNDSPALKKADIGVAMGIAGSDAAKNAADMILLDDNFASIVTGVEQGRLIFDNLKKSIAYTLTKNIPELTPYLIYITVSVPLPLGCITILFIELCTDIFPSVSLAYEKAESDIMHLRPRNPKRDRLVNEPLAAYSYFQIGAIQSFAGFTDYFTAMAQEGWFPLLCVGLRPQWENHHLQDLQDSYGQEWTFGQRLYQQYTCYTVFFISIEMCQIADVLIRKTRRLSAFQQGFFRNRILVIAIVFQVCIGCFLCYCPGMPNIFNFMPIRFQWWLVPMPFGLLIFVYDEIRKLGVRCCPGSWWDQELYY
Chain of Potassium-transporting ATPase alpha chain 1 (Sus scrofa), P19156 (P19156 whole entry): as above

By inhibition is commonly meant the relative decrease from the control value, in per cent. Higher therefore signals a response far below the control. The molecule `CCCc1ncc(-c2ccccc2C)c(-c2ccccn2)n1` showed an inhibition in data set [1] of 23%.

As for `Cc1nc(-c2ccccn2)c(-c2ccccc2C)s1`, the inhibition in data set [2] turned out to be 48%.

As for `Cc1ccccc1-c1nc(-c2ccccn2)c(-c2ccccc2C)s1`, the inhibition entry in the data set on Rattus norvegicus is reported as “Insoluble”.

Usually Km stands for the concentration of substrate that gives half-maximal velocity. As to “Potassium-transporting ATPase alpha chain 1 (Sus scrofa), P19156”, in data set [3], the Km turned out to be 560 µM. Besides, the Vmax in data set [4] was found to be 0.636 IU mg-1.

`CCCc1nc(-c2ccccc2C)c(-c2ccccn2)[nH]1`: the inhibition in data set [2] amounted to 67%.
